Assay results published in patent publication US7078556B2, “Antibiotics Cyan-416 A, Cyan-416 B, Cyan-416 C, Cyan-416 D and Cyan-416 E, and ester derivatives of Cyan-416 B” (Wyeth Holdings Corporation, priority 2002, dated 2006).
In brackets after ≈: the same amount, converted by molar mass.

Test system: Candida albicans GC 3066
Assay: MIC by broth dilution
Format: cell-based
Settings: GC3066, 18 h, Table 1, 18 hours at 35° C.
Procedure: (§1) The minimum inhibitory concentration (MIC), the lowest concentration of the antibiotic which inhibits growth of the test organism, is determined by the broth dilution method using Muller-Hinton II […] (Baltimore Biological Laboratories) following the recommendations of the National Committee for Clinical Laboratory Standards [Methods for dilution antimicrobial susceptibility tests for bacteria that grow aerobically. Approved standard M7-A2. National Committee for Clinical Laboratory Standards, Villanova, Pa].
(§2) An inoculum level of 5×10^5 CFU/ml, and a range of antibiotic concentrations (64–0.06 μg/ml) is used. The MIC is determined after the microtiter plates are incubated for 18 hours at 35° C. in an ambient air incubator. The test organisms comprise a spectrum of the Gram-positive bacteria Staphylococcus aureus, Streptococcus pneumoniae, and Enterococcus sp., the Gram-negative bacteria Escherichia coli, and the yeast Candida albicans. These organisms include recent clinical isolates that are resistant to methicillin and vancomycin. MIC data of Cyan-416 A–E are listed in Table 1 and MIC data of ester derivatives of Cyan-416 B (Formula I) are listed in Table 2.

SMILES	MIC [µg/mL]
COC(=O)c1c(O)ccc(O)c1C(=O)c1c(O)cc2c(c1O)[C@@H]1C=C[C@]3(C2)C(=C(O)c2c(O)cc(C)cc2[C@@H]3OC(C)=O)C1=O [Example 3a, Cyan-416 A]	> 64

Same assay, conditions: GC3066, 18 h, Table 2, 18 hours at 35° C.

SMILES	MIC [µg/mL]
COC(=O)c1c(O)ccc(O)c1C(=O)c1c(O)cc2c(c1O)[C@@H]1C=C[C@]3(C2)C(=C(O)c2c(O)cc(C)cc2[C@@H]3OC(C)=O)C1=O [Example 3a, Cyan-416 A]	> 128

Test system: Enterococcus faecalis GC 2242
Assay: MIC by broth dilution
Format: cell-based
Settings: GC2242, Table 1, 18 hours at 35° C., read-out: MIC
Procedure: as §1, §2

SMILES	MIC [µg/mL]
COC(=O)c1c(O)ccc(O)c1C(=O)c1c(O)cc2c(c1O)[C@@H]1C=C[C@]3(C2)C(=C(O)c2c(O)cc(C)cc2[C@@H]3OC(C)=O)C1=O [Example 3a, Cyan-416 A]	16 (≈ 26 µM)

Same assay, conditions: Table 2, 18 hours at 35° C.

SMILES	MIC [µg/mL]
COC(=O)c1c(O)ccc(O)c1C(=O)c1c(O)cc2c(c1O)[C@@H]1C=C[C@]3(C2)C(=C(O)c2c(O)cc(C)cc2[C@@H]3OC(C)=O)C1=O [Example 3a, Cyan-416 A]	16 (≈ 26 µM)

Test system: Enterococcus faecalis GC 4555
Assay: MIC by broth dilution
Format: cell-based
Settings: GC4555, Table 1, 18 hours at 35° C., read-out: MIC
Procedure: as §1, §2

SMILES	MIC [µg/mL]
COC(=O)c1c(O)ccc(O)c1C(=O)c1c(O)cc2c(c1O)[C@@H]1C=C[C@]3(C2)C(=C(O)c2c(O)cc(C)cc2[C@@H]3OC(C)=O)C1=O [Example 3a, Cyan-416 A]	16 (≈ 26 µM)

Same assay, conditions: Table 2, 18 hours at 35° C.

SMILES	MIC [µg/mL]
COC(=O)c1c(O)ccc(O)c1C(=O)c1c(O)cc2c(c1O)[C@@H]1C=C[C@]3(C2)C(=C(O)c2c(O)cc(C)cc2[C@@H]3OC(C)=O)C1=O [Example 3a, Cyan-416 A]	16 (≈ 26 µM)

Test system: Enterococcus faecalis GC 6189
Assay: MIC by broth dilution
Format: cell-based
Settings: GC6189, Table 2, 18 hours at 35° C.
Procedure: as §1, §2

SMILES	MIC [µg/mL]
COC(=O)c1c(O)ccc(O)c1C(=O)c1c(O)cc2c(c1O)[C@@H]1C=C[C@]3(C2)C(=C(O)c2c(O)cc(C)cc2[C@@H]3OC(C)=O)C1=O [Example 3a, Cyan-416 A]	16 (≈ 26 µM)

Test system: Enterococcus faecalis GC 842
Assay: MIC by broth dilution
Format: cell-based
Settings: GC842, Table 1, 18 hours at 35° C.
Procedure: as §1, §2

SMILES	MIC [µg/mL]
COC(=O)c1c(O)ccc(O)c1C(=O)c1c(O)cc2c(c1O)[C@@H]1C=C[C@]3(C2)C(=C(O)c2c(O)cc(C)cc2[C@@H]3OC(C)=O)C1=O [Example 3a, Cyan-416 A]	16 (≈ 26 µM)

Test system: Enterococcus faecium 4558
Assay: MIC by broth dilution
Format: cell-based
Settings: Table 2, 18 hours at 35° C.
Procedure: as §1, §2

SMILES	MIC [µg/mL]
COC(=O)c1c(O)ccc(O)c1C(=O)c1c(O)cc2c(c1O)[C@@H]1C=C[C@]3(C2)C(=C(O)c2c(O)cc(C)cc2[C@@H]3OC(C)=O)C1=O [Example 3a, Cyan-416 A]	8 (≈ 13 µM)

Test system: Enterococcus faecium GC 2243
Assay: MIC by broth dilution
Format: cell-based
Settings: GC2243, Table 2, 18 hours at 35° C.
Procedure: as §1, §2

SMILES	MIC [µg/mL]
COC(=O)c1c(O)ccc(O)c1C(=O)c1c(O)cc2c(c1O)[C@@H]1C=C[C@]3(C2)C(=C(O)c2c(O)cc(C)cc2[C@@H]3OC(C)=O)C1=O [Example 3a, Cyan-416 A]	8 (≈ 13 µM)

Test system: Enterococcus faecium GC 4556
Assay: MIC by broth dilution
Format: cell-based
Settings: GC4556, Table 2, 18 hours at 35° C.
Procedure: as §1, §2

SMILES	MIC [µg/mL]
COC(=O)c1c(O)ccc(O)c1C(=O)c1c(O)cc2c(c1O)[C@@H]1C=C[C@]3(C2)C(=C(O)c2c(O)cc(C)cc2[C@@H]3OC(C)=O)C1=O [Example 3a, Cyan-416 A]	16 (≈ 26 µM)

Test system: Escherichia coli GC 2203
Assay: MIC by broth dilution
Format: cell-based
Settings: GC2203, 18 h, Table 1, Escherichia coli GC 2203, 18 hours at 35° C.
Procedure: as §1, §2

SMILES	MIC [µg/mL]
COC(=O)c1c(O)ccc(O)c1C(=O)c1c(O)cc2c(c1O)[C@@H]1C=C[C@]3(C2)C(=C(O)c2c(O)cc(C)cc2[C@@H]3OC(C)=O)C1=O [Example 3a, Cyan-416 A]	> 64

Same assay, conditions: GC2203, 18 h, Table 2, Escherichia coli coli GC 2203, 18 hours at 35° C.

SMILES	MIC [µg/mL]
COC(=O)c1c(O)ccc(O)c1C(=O)c1c(O)cc2c(c1O)[C@@H]1C=C[C@]3(C2)C(=C(O)c2c(O)cc(C)cc2[C@@H]3OC(C)=O)C1=O [Example 3a, Cyan-416 A]	> 128

Test system: Escherichia coli GC 4560 (imp)
Assay: MIC by broth dilution
Format: cell-based
Settings: Escherichia coli, 18 h
Procedure: as §1, §2

SMILES	MIC [µg/mL]
COC(=O)c1c(O)ccc(O)c1C(=O)c1c(O)cc2c(c1O)[C@@H]1C=C[C@]3(C2)C(=C(O)c2c(O)cc(C)cc2[C@@H]3OC(C)=O)C1=O [Example 3a, Cyan-416 A]	32 (≈ 52.1 µM)

Same assay, conditions: Table 2; Escherichia coli GC 4560 (imp); 18 hours at 35° C.

SMILES	MIC [µg/mL]
COC(=O)c1c(O)ccc(O)c1C(=O)c1c(O)cc2c(c1O)[C@@H]1C=C[C@]3(C2)C(=C(O)c2c(O)cc(C)cc2[C@@H]3OC(C)=O)C1=O [Example 3a, Cyan-416 A]	32 (≈ 52.1 µM)

Test system: Staphylococcus aureus GC 1131
Assay: MIC by broth dilution
Format: cell-based
Settings: GC1131, Table 1, 18 hours at 35° C., read-out: MIC
Procedure: as §1, §2

SMILES	MIC [µg/mL]
COC(=O)c1c(O)ccc(O)c1C(=O)c1c(O)cc2c(c1O)[C@@H]1C=C[C@]3(C2)C(=C(O)c2c(O)cc(C)cc2[C@@H]3OC(C)=O)C1=O [Example 3a, Cyan-416 A]	8 (≈ 13 µM)

Same assay, conditions: Table 2, 18 hours at 35° C.

SMILES	MIC [µg/mL]
COC(=O)c1c(O)ccc(O)c1C(=O)c1c(O)cc2c(c1O)[C@@H]1C=C[C@]3(C2)C(=C(O)c2c(O)cc(C)cc2[C@@H]3OC(C)=O)C1=O [Example 3a, Cyan-416 A]	8 (≈ 13 µM)

Test system: Staphylococcus aureus GC 2216
Assay: MIC by broth dilution
Format: cell-based
Settings: GC2216, Table 1, 18 hours at 35° C., read-out: MIC
Procedure: as §1, §2

SMILES	MIC [µg/mL]
COC(=O)c1c(O)ccc(O)c1C(=O)c1c(O)cc2c(c1O)[C@@H]1C=C[C@]3(C2)C(=C(O)c2c(O)cc(C)cc2[C@@H]3OC(C)=O)C1=O [Example 3a, Cyan-416 A]	8 (≈ 13 µM)

Same assay, conditions: Table 2, 18 hours at 35° C.

SMILES	MIC [µg/mL]
COC(=O)c1c(O)ccc(O)c1C(=O)c1c(O)cc2c(c1O)[C@@H]1C=C[C@]3(C2)C(=C(O)c2c(O)cc(C)cc2[C@@H]3OC(C)=O)C1=O [Example 3a, Cyan-416 A]	8 (≈ 13 µM)

Test system: Staphylococcus aureus GC 4536
Assay: MIC by broth dilution
Format: cell-based
Settings: GC4536, Table 1, 18 hours at 35° C.
Procedure: as §1, §2

SMILES	MIC [µg/mL]
COC(=O)c1c(O)ccc(O)c1C(=O)c1c(O)cc2c(c1O)[C@@H]1C=C[C@]3(C2)C(=C(O)c2c(O)cc(C)cc2[C@@H]3OC(C)=O)C1=O [Example 3a, Cyan-416 A]	8 (≈ 13 µM)

Test system: Staphylococcus aureus GC 4541
Assay: MIC by broth dilution
Format: cell-based
Settings: GC4541, Table 2, 18 hours at 35° C.
Procedure: as §1, §2

SMILES	MIC [µg/mL]
COC(=O)c1c(O)ccc(O)c1C(=O)c1c(O)cc2c(c1O)[C@@H]1C=C[C@]3(C2)C(=C(O)c2c(O)cc(C)cc2[C@@H]3OC(C)=O)C1=O [Example 3a, Cyan-416 A]	16 (≈ 26 µM)

Test system: Staphylococcus aureus GC 4543
Assay: MIC by broth dilution
Format: cell-based
Settings: GC4543, Table 2, 18 hours at 35° C.
Procedure: as §1, §2

SMILES	MIC [µg/mL]
COC(=O)c1c(O)ccc(O)c1C(=O)c1c(O)cc2c(c1O)[C@@H]1C=C[C@]3(C2)C(=C(O)c2c(O)cc(C)cc2[C@@H]3OC(C)=O)C1=O [Example 3a, Cyan-416 A]	8 (≈ 13 µM)

Test system: Staphylococcus haemolyticus GC 4547
Assay: MIC by broth dilution
Format: cell-based
Settings: GC4547, Table 2, 18 hours at 35° C.
Procedure: as §1, §2

SMILES	MIC [µg/mL]
COC(=O)c1c(O)ccc(O)c1C(=O)c1c(O)cc2c(c1O)[C@@H]1C=C[C@]3(C2)C(=C(O)c2c(O)cc(C)cc2[C@@H]3OC(C)=O)C1=O [Example 3a, Cyan-416 A]	16 (≈ 26 µM)

Test system: Streptococcus pneumoniae GC 1894
Assay: MIC by broth dilution
Format: cell-based
Settings: GC1894, Table 2, 18 hours at 35° C.
Procedure: as §1, §2

SMILES	MIC [µg/mL]
COC(=O)c1c(O)ccc(O)c1C(=O)c1c(O)cc2c(c1O)[C@@H]1C=C[C@]3(C2)C(=C(O)c2c(O)cc(C)cc2[C@@H]3OC(C)=O)C1=O [Example 3a, Cyan-416 A]	8 (≈ 13 µM)

Test system: Streptococcus pneumoniae GC 6242
Assay: MIC by broth dilution
Format: cell-based
Settings: GC6242, Table 2, 18 hours at 35° C.
Procedure: as §1, §2

SMILES	MIC [µg/mL]
COC(=O)c1c(O)ccc(O)c1C(=O)c1c(O)cc2c(c1O)[C@@H]1C=C[C@]3(C2)C(=C(O)c2c(O)cc(C)cc2[C@@H]3OC(C)=O)C1=O [Example 3a, Cyan-416 A]	8 (≈ 13 µM)

Test system: Pseudomonas aeruginosa GC 2214
Assay: MIC by broth dilution
Format: cell-based
Settings: GC2214, Table 1, 18 hours at 35° C.

SMILES	MIC [µg/mL]
COC(=O)c1c(O)ccc(O)c1C(=O)c1c(O)cc2c(c1O)[C@@H]1C=C[C@]3(C2)C(=C(O)c2c(O)cc(C)cc2[C@@H]3OC(C)=O)C1=O [Example 3a, Cyan-416 A]	> 64
